Measured values published in article PMC7893776, “Selecting an anti-malarial clinical candidate from two potent dihydroisoquinolones” (Malaria Journal, 2021).

Tests used:
[1] = LogP, Gemini Profiler titration; type: physicochemical
Experimental: LogP was measured using a Gemini Profiler instrument (pION Inc., Billerica, MA). 1–2 mg of compound was dissolved in octanol (0.5 mL) in a test tube. The test tube was purged with argon and a magnetic stir bar was added. The solution was treated with aqueous KCl (2.5 mL, 0.15 M) and stirred for 10 min. The pH was adjusted to 2 by addition of aqueous HCl (0.5 M). The resulting solution was titrated by adding aqueous KOH (0.5 M) in small aliquots (controlled by the Gemini Profiler software), until the pH reached 12. The volume of each addition and the corresponding pH of the test solution were recorded. Data were processed using pS software. The data points were fitted to a Bjerrum plot to achieve the best GOF (goodness of fitness) and a logP value was obtained. All measurements were conducted in triplicate.

[2] = system: Caco-2 cells; assay: Caco-2 permeability; type: in vitro ADME; settings: for Caco-2 Efflux Ratio: B→A / A→B
Experimental: Caco-2 cells were maintained at 37 °C in a humidified incubator with an atmosphere of 5% CO2. The cells were cultured in Eagle's Minimum Essential Medium (EMEM) containing 20% fetal bovine serum (FBS) in 75 cm^2 flasks, supplemented with 100 units/ml of penicillin and 100 µg/mL of streptomycin. The Caco-2 cells were seeded onto inserts of a 96-well plate (HTS-Transwell inserts, surface area: 0.143 cm^2, Corning) at a cell density of 0.5 × 10^5 cells/insert. The culture medium was replaced every 2 days, and the cells were maintained for 7 days at 37 °C and 5% CO2. Caco-2 cell monolayers with trans epithelial electrical resistance (TEER) values greater than 400 Ω cm^2 were used for the subsequent assays. The permeability assay was initiated by adding an appropriate volume of HBSS/HEPES containing test compounds to either the apical (A to B) or basolateral (B to A) side of the monolayer, then adding the blank HBSS/HEPES buffer in the receiving compartment, the basolateral or apical side of the monolayer. The Caco-2 cell monolayers were then incubated for 2 h at 37 °C. To make a sample plate, fractions were collected from the basolateral side or apical side and quenched by adding onefold volume of acetonitrile with internal standard (2 µM warfarin) to each well. In a reference plate, the above HBSS/HEPES buffer containing test compounds were diluted with quenching solvent the same as that in the sample plate. 10 µL of supernatants were injected and analysis by UPLC/MS (Waters; Milford, MA). The test compound concentrations were quantified by comparing the sample well to the reference well via peak areas. The A→B (or B→A) apparent permeability coefficients (Papp, 10^–6 cm/s) of each compound were calculated using the equation, Papp = dQ/dt × 1/AC0. The flux of a drug across the monolayer was dQ/dt (µmol/s). The initial drug concentration on the apical or basolateral side was C0 (µM). The surface area of the monolayer was A (cm^2). The efflux ratio is the ratio of apparent permeability for a test compound in the basolateral to apical (B → A) direction relative to that in the A → B direction. All compounds were tested in triplicate.

[3] = system: dog plasma proteins; assay: Plasma protein binding (RED), dog; type: in vitro ADME; settings: average of 20, 4, 0.8 µM
Experimental: (§1) A Rapid Equilibrium Dialysis (RED) Plate (Thermo Scientific, catalog #, PI-90007) was used to determine the percentage of compound binding to plasma proteins. The positive control for this experiment was propranolol-HCl (10 mM in DMSO) and the internal standard was warfarin (2 µM in methanol). 10 mM stocks of compound in DMSO were diluted with DMSO acetonitrile (1:4, v:v) to three different intermediate concentrations: high (2 mM), medium (0.4 mM) and low (0.08 mM). A 10 mM stock of propranolol in DMSO was diluted to 0.4 mM concentration in DMSO:acetonitrile (1:4 v:v). In 16 Eppendorf tubes, the control (10 µL) or each of three compound dilutions (10 µL) were each added to separate aliquots of mouse, rat, dog, and human plasma (990 µL). In the RED plate, potassium phosphate buffer (500 µL, 0.1 M, pH 7.4, 37 °C) was placed in every white well and each plasma/compound mixture was added to each of 3 red wells. […] The compounds and internal standard were detected by selected ion recording (SIR). Using the peak area ratio of compound to warfarin from the SIR spectra, the percentage of free compound [1] and bound compound [2] were calculated using the following equations: (1) % free = (concentration buffer chamber/concentration plasma chamber)*100, and (2) % bound = 100 − % free.

[4] = system: human plasma proteins; assay: Plasma protein binding (RED), human; type: in vitro ADME; settings: average of 20, 4, 0.8 µM
Experimental: as §1

SMILES	LogP [1]	Permeability, Caco-2 ([2]; Apical to Basal)	Permeability, Caco-2 ([2]; Basolateral to Apical)	Caco-2 Efflux Ratio [2]	% bound [3] [%]	% bound [4] [%]
N#Cc1cc(NC(=O)C2c3ccccc3C(=O)N(CC(F)(F)F)C2c2cn[nH]c2)ccc1F (racemic) [(r)-SJ311]	1.24 ± 0.28 (logP( +))	12.5 ± 0.7 10^–6 cm/s	16.6 ± 2.0 10^–6 cm/s	1.34 ± 0.21	90.0 ± 1.0	95.3 ± 0.6
N#Cc1cc(NC(=O)C2c3ccccc3C(=O)N(CC(F)(F)F)C2c2cccnc2)ccc1F (racemic) [(r)-SJ733]	2.95 ± 0.03 (logP( +))	9.4 ± 1.6 10^–6 cm/s	11.0 ± 1.6 10^–6 cm/s	1.17 ± 0.04	88.3 ± 3.1	94.3 ± 0.6
